Source: patent US20200230136A1, “SELECTIVE ADRENORECEPTOR ALPHA2C RECEPTOR ANTAGONISTS ALONE, OR IN COMBINATION WITH CHYMASE INHIBITORS FOR USE IN THE TREATMENT AND/OR PROPHYLAXIS OF PERIPHERAL ARTERY DISEASES (PAD)” (Bayer Aktiengesellschaft, priority 2017, published 2020)

Key:
Assay type in all cases: in vivo
[1] = test system: ischemic wounds in New Zealand white rabbits; assay: Wound healing in the ischemic rabbit ear model
Protocol: Ischemic wounds (three 7 mm full-thickness dermal punches on the inner surface of both ears) were induced in New Zealand white rabbits. Oral gavage was done through a nasogastric tube or catheter. 20 rabbits were treated with Compound of Ex. 8 (0.3 mg/kg; n=10) or vehicle (10% ethanol, 30% PEG 400, 60% tap water, n=10) through the catheter daily at multiple time points [post-wounding days (POD) 3, 4, 5, 6 and 7]. Wounds were harvested on POD 10. For histologic analysis, one-half of wounds including the surrounding normal skin in rectangular shape was taken. One-half of the wound was frozen for further molecular analysis. Tissues underwent routine processing, paraffin embedding, and sectioning. A 4 μm cross section through the center of each rectangular biopsy was taken. The tissues were stained with hematoxylin and eosin and examined under light microscopy. Several histomorphometric measurements were determined, using a digital image analysis system (NIS-Elements Basic Research; Nikon Instech Co, Kanagawa, Japan) at 2 fold and 10 fold magnification. Each parameter was measured in a blinded manner.
In addition, tissue oxygen tension and blood flow were examined by the OxyLite® system (Oxford Optronix). Oxygen tension and blood flow were measured on POD 3, 7 and 10 in each rabbit. The oxygen tension unit is mmHg and the blood flow unit is blood PUs. The results were presented as ratio of O2-ischemia/O2-non-ischemia, or flow-ischemia/flow-non-ischemia. Analysis was performed by comparison between control and treatment groups on POD 3, 7 and 10.

[2] = test system: diabetic ZDF fa/fa rats, ligature of the left iliac artery; assay: Effects on ankle-brachial index in ZDF rats (unilateral hindlimb ischemia model)
Protocol: Compound of Ex. 8 induced a 10 to 30% improvement in the perfusion index (FIG. 7). […] Corresponding plasma concentrations were measured between 4 and 47 μg/L.
FIG. 6: Effects of Compound of Ex. 8 on perfusion pressure indices. Shown are baseline value (Od) as well as perfusion pressure indices after ligature of the left iliac artery and 2 weeks of daily treatment (14 d) with Compound of Ex. 8 in diabetic ZDF fa/fa rats (raw data; 10 animals) • Student t-test, Compound of Ex. 8 versus vehicle; ZDF=Zucker diabetic fatty
FIG. 7: Percent change in perfusion pressure indices by Compound of Ex. 8 after 14 days (14 d) of daily treatment compared to baseline values (mean±SEM; 10 animals) • SEM=standard error of mean; ZDF=Zucker diabetic fatty

[3] = test system: atherosclerotic ApoE-/- mice, hindlimb ischemia; assay: Effects on running distance in apolipoprotein E knockout mice after hindlimb ischemia
Protocol: To evaluate effects more closely, the percent change in running distance compared to the run-in values (2 week run-in period before ligature) of all animals were analyzed.
FIG. 8: Effects of Compound of Ex. 8 on daily running distance in atherosclerotic ApoE-/- mice before and after induction of bilateral hindlimb ischemia (mean±SEM; 10 to 11 animals) • ApoE-/-=apolipoprotein E knockout; Ctrl.=control; SEM=standard error of mean

[4] = test system: full-thickness wounds in STZ-challenged minipigs; assay: Wound healing in streptozotocin (STZ)-challenged minipigs
Protocol: Wounds (twelve 15.15-mm full-thickness wounds) were induced in STZ-challenged minipigs. STZ challenge (160 mg/kg) was performed 14 days before wounding in 15 animals, two out of 15 animals had to be sacrificed due to blood glucose instability. The remaining 13 animals (body weight around 25 kg: 27.92±2.35 kg on the day of STZ dosing, Day 0: 24.35±2.14 kg and Day 17: 23.27±2.24 kg) were randomized to 3 groups:
Group I) placebo: Animal 1, 8, 10 and 13; Group II) 0.6 mg/kg Compound of Ex 8: Animal 2, 7, 11 and 12; Group III) 0.1 mg/kg Compound of Ex. 8: Animal 3, 4, 6, 14 and 15
Oral gavage was done by gelatin capsules containing Compound of Ex. 8 or lactose as placebo (25 kg body weight was assumed for all animals).
Topical treatment was performed using Compound of Ex. 8 in a concentration of 0.06 mg/mL in a Pluronic® gel matrix or as placebo Pluronic® gel at a volume of 1 mL per wound. The whole study was performed in a blinded manner. The 12 wounds per animal were treated according to Table 1 to combine oral treatment with and without topical treatment in this study. Wounds were closed by a sterile reclosable bag system. Animals were treated orally BID for 17 days starting after wounding (Day 0) and topically once daily on Days 0, 2, 5, 8, 11 and 14. On Day 17, wounds were harvested and animals sacrificed.
The primary endpoint of this study was wound size over study time. Wound size was evaluated via photographs and evaluated by photoshop under blinded conditions. Wound size was shown in absolute numbers as well as percent size vs. wound size on Day 0. In addition, re-epithelialization as well as wound contracture were determined The mean of all 12 wounds per animal was compared to Day 0. […] Between Day 5 and Day 11, a differentiation between the animals was observed.

[5] = 0.6 mg treated wounds vs placebo

Question: O=C(c1cnc(N2CC3(COC3)C2)nc1)N1CCC(N2CCc3ccccc3C2)CC1 [Compound of Ex. 8, [4-(3,4-Dihydroisoquinolin-2(1H)-yl)piperidin-1-yl][2-(2-oxa-6-azaspiro[3.3]hept-6-yl)pyrimidin-5-yl]methanone] was tested. Which granulation area ([1]; 0.3 mg/kg oral, POD 3-7, wounds harvested POD 10, P=0.07 vs control) did it give?
Answer: 133,630+20,208 μm^2

Question: What about the epithelial gap ([1]; 0.3 mg/kg oral, POD 3-7, wounds harvested POD 10, no significant difference vs control) of the same molecule?
Answer: 5,212+213 μm

Question: What about the “blood flow ratio (flow-ischemia/flow-non-ischemia)” value ([1]; 0.3 mg/kg, POD 10, P=0.018 vs control) of the same molecule?
Answer: 0.495

Question: And the “oxygen tension ratio (O2-ischemia/O2-non-ischemia)” value ([1]; 0.3 mg/kg, POD 10, P=0.079 vs control)?
Answer: 0.238

Question: And the “change in blood flow ratio from POD 3 to POD 10” value ([1]; 0.3 mg/kg, same rabbit, P=0.108 vs control)?
Answer: 0.149

Question: And the “change in oxygen tension ratio from POD 3 to POD 10” value ([1]; 0.3 mg/kg, same rabbit, P=0.322 vs control)?
Answer: 0.082

Question: And the perfusion pressure ([2]; 0.3 mg/kg (most effective dose), 14 d daily treatment)?
Answer: significant increase in perfusion pressure

Question: And the “muscle function in the ligated limb” value ([2]; 0.1, 0.3 and 1 mg/kg)?
Answer: slight tendency toward improved muscle function

Question: What about the perfusion indices ([2]; 0.1, 0.3 and 1 mg/kg, 2 weeks of daily treatment (FIG. 6)) of the same molecule?
Answer: increase in perfusion indices at all doses

Question: What about the “total running distance, percent change vs run-in values” ([3]; 10 μg/ml (FIG. 9)) of the same molecule?
Answer: tendency toward an improvement

Question: And the “running distance, area under the curve from Day 0 to Day 28” value ([3]; 30 μg/kg vs placebo)?
Answer: significant improvements compared to placebo

Question: What about the “running distance, percent change vs run-in values” ([3]; 30 μg/kg, several days during the 4 week observation period (FIG. 10)) of the same molecule?
Answer: significant improvement in running distance

Question: And the “running distance, area under the curve from Day 0 to Day 28” value ([3]; 100 μg/kg vs placebo)?
Answer: significant improvements compared to placebo

Question: What about the “running distance, percent change vs run-in values” ([3]; 100 μg/kg, several days during the 4 week observation period (FIG. 11)) of the same molecule?
Answer: significant improvement in running distance

Question: And the running distance ([3]; oral administration of 10, 30 and 100 μg/mL, after induction of hindlimb ischemia (FIG. 8))?
Answer: increase in running distance

Question: What about the “wound size, wounds without topical treatment (Wounds 1 to 6)” value ([4]; 0.1 mg/kg oral BID vs placebo, Day 2 (P=0.011) and Day 5 (P=0.014)) of the same molecule?
Answer: significant improvement vs. placebo

Question: And the wound contracture ([4]; 0.1 mg/kg oral BID, Day 2, 5, 8, 11 and 17)?
Answer: improvement in wound contracture being significant

Question: What about the “course of wound healing (variability)” value ([4]; 0.1 mg/kg oral BID, between Day 5 and Day 11) of the same molecule?
Answer: greater heterogeneity

Question: What about the “histology: cell proliferation” value [4, 5] of the same molecule?
Answer: reduced cell proliferation

Question: And the “histology: collagen III/I ratio” value [4, 5]?
Answer: lower collagen III/I ratio

Question: What about the “histology: detectable vessels” value [4, 5] of the same molecule?
Answer: more detectable vessels

Question: What about the “histology: differentiation level of the epidermis” value [4, 5] of the same molecule?
Answer: increased differentiation level of the epidermis

Question: And the “histology: inflammation” value [4, 5]?
Answer: reduced inflammation

Question: What about the “histology: re-epithelialization level” value [4, 5] of the same molecule?
Answer: higher re-epithelialization level

Question: What about the “histology: structuring of basement membranes defined by laminin detection” value [4, 5] of the same molecule?
Answer: increased structuring of basement membranes

Question: And the “histological evaluation of wound healing” value ([4]; 0.6 mg treated wounds vs placebo, wounds harvested Day 17)?
Answer: more advanced wound healing

Question: What about the “wound size over time, mean of all wounds” value ([4]; 0.6 mg/kg oral BID 17 days vs placebo, all 12 wounds per animal, all days (FIG. 1)) of the same molecule?
Answer: significantly improved wound healing

Question: And the “wound size, wounds without topical treatment (Wounds 1 to 6)” value ([4]; 0.6 mg/kg oral BID vs placebo, all values (FIG. 2))?
Answer: significantly better compared to the placebo group

Question: And the wound contracture ([4]; 0.6 mg/kg oral BID, Day 2, 5, 8 and 11)?
Answer: improvement in wound contracture being significant

Question: And the “difference in wound size vs placebo, wounds without topical treatment (Wounds 1 to 6)” value ([4]; 0.6 mg/kg oral BID, Day 8)?
Answer: about 21.6%

Question: And the re-epithelialization ([4]; 0.6 mg/kg oral BID, Day 17, two animals of the group)?
Answer: complete and stable re-epithelialization

Question: And the “speed of wound healing” value ([4]; 0.6 mg/kg oral BID, between Day 5 and Day 11, vs placebo and 0.1 mg/kg groups)?
Answer: quicker wound healing compared to the 2 other groups

Question: And the “wound size, wounds without topical treatment (Wounds 1 to 6), dose comparison” value ([4]; 0.6 mg/kg vs 0.1 mg/kg group, Days 8, 11, 14 and 17)?
Answer: significantly better compared to the 0.1 mg/kg group
